According to patent publication US9181232B2, “Difluoro-hexahydro-cyclopentaoxazinyls and difluoro-hexahydro-benzooxazinyls as BACE1 inhibitors” (Hoffmann-La Roche Inc., priority 2012, dated 2015):

Tests used:
CYP2C9 = target: T1, CYP2C9 (Homo sapiens, UniProt P11712); experiment: CYP inhibition assay, human liver microsomes, diclofenac; format: in vitro ADME; settings: read-out: CYP IC50 2C9
T1 construct: 0.2 mg/ml pooled human liver microsomes; from tissue; host or cells: pooled human liver microsomes
Description: (§1) Inhibition of cytochromes P450 (CYPs) 2C9, 2D6 and 3A4 was assessed using human liver microsomes and CYP-selective substrate metabolism reactions. 50 μl incubations were made up containing (finally) 0.2 mg/ml pooled human liver microsomes, 5 μM substrate (diclofenac for CYP2C9 [4′hydroxylase], dextromethorphan for CYP2D6 [O-demethylase] or midazolam for CYP3A4 [1′hydroxylase]), 0.25 μL DMSO containing test inhibitor and NADPH regenerating system. Test inhibitor concentrations of 50, 16.7, 5.6, 1.9, 0.6 and 0.2 μM were assessed in singlicate. Incubations were prewarmed to 37° C. for 10 minutes before initiation by addition of NADPH regenerating system. Incubations were quenched after 5 minutes (20 minutes for dextromethorphan) by addition of 50 μl cold acetonitrile containing 20 ng/ml 4-OH-diclofenac-13C6, 20 ng/mL dextrorphan-D3 and 20 ng/mL 1-OH-midazolam-D4. Quenched incubates were stored at −20° C. for at least 1 hour before centrifugation (20,000×g, 20 minutes). Supernatants were removed and diluted 1:1 with water prior to analysis using a RapidFire sample injector system and API4000 mass spectrometer. Peak areas for substrate, metabolite and stable-labelled metabolite standard were determined using MS/MS. The peak area ratios between the metabolite generated by the enzymatic reaction and the internal standard were used in subsequent calculations. The percentage of (DMSO) control activity was calculated for each incubate and IC50 values estimated by non-linear regression. Sulfaphenazole, quinidine or ketoconazole were tested in each CYP2C9, CYP2D6 or CYP3A4 inhibition experiment, respectively, to ensure assay sensitivity and reproducibility. (Validated assays for human cytochrome P450 activities^11)

CYP3A4 = target: T2, CYP3A4 (Homo sapiens, UniProt P08684); experiment: CYP inhibition assay, human liver microsomes, midazolam; format: in vitro ADME; settings: read-out: CYP IC50 3A4
T2 construct: 0.2 mg/ml pooled human liver microsomes; from tissue; host or cells: pooled human liver microsomes
Description: as §1

[1] = target: T3, cathepsin D (from human liver) (Homo sapiens, UniProt P07339); experiment: Cathepsin D fluorescent substrate kinetic assay; format: biochemical; settings: pH 5.5
T3 construct: cathepsin D (from human liver, Calbiochem); purchased Calbiochem; host or cells: human liver (tissue-purified)
From the text: The MR121 fluorescence assays described below are based on the fact that MR121 forms a non-fluorescent ground state complex with tryptophan. In solution this formation occurs at millimolar concentrations of tryptophan. The mechanism can be used to design a generic biochemical assay for proteases. A substrate peptide is labeled at the N-terminus with tryptophan and at the C-terminus with the fluorophore MR121 (for cathepsin D the 10 amino acid peptide WTSVLMAAPC-MR121 was used; for cathepsin E, MR121-CKLVFFAEDW was used). In absence of protease activity, the substrates remain intact and the MR121 fluorescence is reduced by the high local Trp-concentration. If the substrates are cleaved by the enzymes the MR121 fluorescence is recovered.
The fluorescent substrate cathepsin D and cathepsin E kinetic assays were performed at room temperature in 384-well microtiter plates (black with clear flat bottom, non binding surface plates from Corning) in a final volume of 51 μl. The test compounds were serially diluted in DMSO (15 concentrations, 1/3 dilution steps) and 1 μl of diluted compounds were mixed for 10 min with 40 μl of cathepsin D (from human liver, Calbiochem) diluted in assay buffer (100 mM sodium acetate, 0.05% BSA, pH 5.5; final concentration: 200 nM) or with 40 μl of recombinant human cathepsin E (R&D Systems) diluted in assay buffer (100 mM sodium acetate, 0.05% BSA, pH 4.5; final concentration: 0.01 nM). After addition of 10 μl of the cathepsin D substrate WTSVLMAAPC-MR121 diluted in cathepsin D assay buffer (final concentration: 300 nM) or […] cathepsin E substrate MR121-CKLVFFAEDW diluted in cathepsin E assay buffer (final concentration: 300 nM), the plates were strongly shaken for 2 minutes. The enzymatic reaction was followed in a plate: vision reader (Perkin Elmer) (excitation wavelength: 630 nm; emission: 695 nm) for at least 30 minutes in a kinetic measurement detecting an increase of MR121 fluorescence during the reaction time. The slope in the linear range of the kinetic was calculated and the IC50 of the test compounds were determined using a four parameter equation for curve fitting.

hERG channel = target: T4, hERG channel (Homo sapiens, UniProt Q12809); experiment: PatchXpress hERG inhibition assay; format: cell-based; settings: @ 1 μM; CHO cells expressing hERG
T4 construct: expressed in transfected cells; host or cells: CHO cells
Description: The detailed method to quantify hERG channel inhibition by the automated patch clamp system PatchXpress® 7000A (Molecular Devices, Sunnyvale, Calif.) has been described by Guo et al.^12 In brief, Chinese hamster ovary (CHO) cells transfected with the human ether-a-go-go-related gene (hERG) was cultured in Ex-cell 302 media supplemented with 10% fetal bovine serum, 2 mM glutamine and 0.25 mg/ml geneticin and maintained in a CO2 incubator at 37° C. For patch clamp electrophysiology, the external buffer contained (in mM): 150 NaCl, 10 Hepes, 4 KCl, 1.2 CaCl2, 1 MgCl2, pH 7.4 adjusted with […] and the internal recording solution contained (in mM): 140 KCl, 6 EGTA, 5 Hepes, MgCl2, 5 ATP-Na2, pH 7.2 adjusted with KOH. Once the cell was loaded in the recording chamber and formed a giga ohm seal with the planar glass electrodes (Sealchip™), a whole-cell configuration was achieved by rupturing the cell membrane. The membrane potential was then clamped at −80 mV and the hERG channel activated by a 1-second depolarizing pulse delivered at 0.1 Hz, the hERG current was measured during the 500 ms-repolarizing pulse to −40 mV. After an acceptable hERG current recording was obtained, the cell was first exposed to 0.3% DMSO as the vehicle control, followed by the test article in three ascending, full-log interval concentrations and finally E-4031 at 1 μM (as the positive control) to block the hERG current completely. Each test article was tested on three or more cells and at concentrations up to 30 μM or the solubility limit determined the BD Gentest™ solubility scanner. The inhibition of hERG current at each concentration was normalized to that recorded in the vehicle control, and fitted with Hill equation to calculate IC20 and/or IC50.

CYP2D6 = target: T5, CYP2D6 (Homo sapiens, UniProt P10635); experiment: CYP inhibition assay, human liver microsomes, dextromethorphan; format: in vitro ADME; settings: read-out: CYP IC50 2D6
T5 construct: 0.2 mg/ml pooled human liver microsomes; from tissue; host or cells: pooled human liver microsomes
Description: as §1

T4 sequence (Q12809 whole entry): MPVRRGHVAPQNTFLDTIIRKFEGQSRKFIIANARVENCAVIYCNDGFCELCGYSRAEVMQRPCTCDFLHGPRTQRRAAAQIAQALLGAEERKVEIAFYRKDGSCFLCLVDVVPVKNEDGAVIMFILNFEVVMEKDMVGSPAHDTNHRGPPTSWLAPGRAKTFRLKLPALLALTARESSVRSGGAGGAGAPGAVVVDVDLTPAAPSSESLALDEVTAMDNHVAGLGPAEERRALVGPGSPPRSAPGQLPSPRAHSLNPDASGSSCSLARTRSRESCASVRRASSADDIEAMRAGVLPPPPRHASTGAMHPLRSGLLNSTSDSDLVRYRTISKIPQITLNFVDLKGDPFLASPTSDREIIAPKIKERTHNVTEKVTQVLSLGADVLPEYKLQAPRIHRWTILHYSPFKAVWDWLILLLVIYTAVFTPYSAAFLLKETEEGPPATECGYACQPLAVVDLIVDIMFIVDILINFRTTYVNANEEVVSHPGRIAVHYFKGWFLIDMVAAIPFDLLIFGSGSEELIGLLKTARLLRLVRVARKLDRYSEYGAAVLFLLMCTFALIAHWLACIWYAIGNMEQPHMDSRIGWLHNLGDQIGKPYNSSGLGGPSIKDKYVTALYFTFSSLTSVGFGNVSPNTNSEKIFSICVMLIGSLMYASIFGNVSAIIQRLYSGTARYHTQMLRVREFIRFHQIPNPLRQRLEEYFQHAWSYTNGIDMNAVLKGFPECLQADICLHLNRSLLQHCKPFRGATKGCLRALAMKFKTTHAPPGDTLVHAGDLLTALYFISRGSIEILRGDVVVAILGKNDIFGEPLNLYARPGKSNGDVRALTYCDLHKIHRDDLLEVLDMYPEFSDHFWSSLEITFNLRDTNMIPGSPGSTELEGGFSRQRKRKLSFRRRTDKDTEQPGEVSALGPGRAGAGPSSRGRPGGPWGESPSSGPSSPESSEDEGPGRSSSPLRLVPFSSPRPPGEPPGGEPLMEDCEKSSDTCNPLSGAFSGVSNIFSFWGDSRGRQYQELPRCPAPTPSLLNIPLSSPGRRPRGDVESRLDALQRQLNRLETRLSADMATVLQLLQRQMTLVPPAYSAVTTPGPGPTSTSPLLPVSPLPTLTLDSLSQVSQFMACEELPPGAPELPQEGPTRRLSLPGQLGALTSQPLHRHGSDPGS
T5 sequence (P10635 whole entry): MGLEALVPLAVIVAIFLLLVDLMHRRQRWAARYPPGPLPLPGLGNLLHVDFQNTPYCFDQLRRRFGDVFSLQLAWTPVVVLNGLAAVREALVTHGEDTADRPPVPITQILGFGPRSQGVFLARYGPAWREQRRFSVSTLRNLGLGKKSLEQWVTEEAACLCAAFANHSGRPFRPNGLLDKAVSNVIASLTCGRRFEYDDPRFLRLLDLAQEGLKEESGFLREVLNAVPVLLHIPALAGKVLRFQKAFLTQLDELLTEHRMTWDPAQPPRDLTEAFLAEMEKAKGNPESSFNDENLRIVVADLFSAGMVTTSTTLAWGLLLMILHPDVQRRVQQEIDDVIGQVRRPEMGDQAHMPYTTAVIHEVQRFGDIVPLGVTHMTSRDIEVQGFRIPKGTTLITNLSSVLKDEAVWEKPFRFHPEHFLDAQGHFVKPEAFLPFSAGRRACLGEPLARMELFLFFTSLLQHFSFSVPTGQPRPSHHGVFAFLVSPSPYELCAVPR
T3 sequence (P07339 65-162 limits assumed): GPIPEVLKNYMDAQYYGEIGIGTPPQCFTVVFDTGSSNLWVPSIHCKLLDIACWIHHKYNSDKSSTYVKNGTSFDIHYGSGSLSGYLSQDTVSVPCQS
T3 sequence (P07339 169-412 limits assumed): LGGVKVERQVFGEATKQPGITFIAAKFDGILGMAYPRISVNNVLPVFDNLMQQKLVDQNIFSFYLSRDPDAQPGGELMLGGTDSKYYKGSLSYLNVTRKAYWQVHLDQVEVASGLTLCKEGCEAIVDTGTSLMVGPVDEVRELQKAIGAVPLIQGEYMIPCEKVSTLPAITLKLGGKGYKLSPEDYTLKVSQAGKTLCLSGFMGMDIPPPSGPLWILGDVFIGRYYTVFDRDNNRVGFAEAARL
T2 sequence (P08684 whole entry): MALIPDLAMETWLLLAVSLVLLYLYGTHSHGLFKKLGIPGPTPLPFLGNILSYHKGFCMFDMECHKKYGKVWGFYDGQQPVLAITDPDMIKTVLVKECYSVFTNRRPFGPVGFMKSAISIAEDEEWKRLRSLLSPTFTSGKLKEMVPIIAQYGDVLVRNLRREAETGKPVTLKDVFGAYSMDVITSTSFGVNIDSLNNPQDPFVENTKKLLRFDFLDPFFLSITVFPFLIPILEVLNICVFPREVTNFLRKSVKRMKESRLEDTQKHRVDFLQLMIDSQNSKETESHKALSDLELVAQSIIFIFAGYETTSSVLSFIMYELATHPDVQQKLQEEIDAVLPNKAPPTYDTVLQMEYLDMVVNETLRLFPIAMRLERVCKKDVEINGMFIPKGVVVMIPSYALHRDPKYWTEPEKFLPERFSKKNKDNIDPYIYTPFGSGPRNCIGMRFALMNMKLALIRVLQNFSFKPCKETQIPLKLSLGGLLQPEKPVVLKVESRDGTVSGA
T1 sequence (P11712 whole entry): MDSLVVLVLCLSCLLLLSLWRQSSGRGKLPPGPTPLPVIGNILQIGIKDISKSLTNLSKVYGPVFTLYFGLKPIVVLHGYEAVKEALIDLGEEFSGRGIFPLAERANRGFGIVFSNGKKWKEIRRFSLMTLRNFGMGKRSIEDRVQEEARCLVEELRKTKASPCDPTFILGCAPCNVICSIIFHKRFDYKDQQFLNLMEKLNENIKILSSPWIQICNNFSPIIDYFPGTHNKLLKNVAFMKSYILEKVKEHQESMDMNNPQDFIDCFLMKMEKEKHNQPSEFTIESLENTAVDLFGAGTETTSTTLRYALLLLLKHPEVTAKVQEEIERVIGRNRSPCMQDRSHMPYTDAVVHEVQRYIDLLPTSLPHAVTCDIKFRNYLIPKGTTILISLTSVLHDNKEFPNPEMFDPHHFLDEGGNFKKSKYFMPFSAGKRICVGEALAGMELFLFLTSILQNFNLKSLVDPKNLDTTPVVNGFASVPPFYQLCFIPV

IC50 (CYP2C9) [µM]	IC50 (CYP3A4) [µM]	IC50 [1] [µM]	IC50 (CYP2D6) [µM]	SMILES	hERG inhibition (hERG channel)
> 10	> 10	> 200	> 10	C[C@]1(c2cc(NC(=O)c3ccc(C#N)cn3)ccc2F)N=C(N)O[C@@H]2CCCC(F)(F)[C@@H]21 [Example 8, 5-Cyano-pyridine-2-carboxylic acid [3-((4S,4aR,8aR)-2-amino-5,5-difluoro-4-methyl-4a,5,6,7,8,8a-hexahydro-4H-benzo[e][1,3]oxazin-4-yl)-4-fluoro-phenyl]-amide]	A (A = less than 50% inhibition @ 1 μM)
> 10	> 10	135	1 to 10	CC#CCOc1cnc(C(=O)Nc2ccc(F)c([C@@]3(C)N=C(N)O[C@@H]4CCC(F)(F)[C@@H]43)c2)cn1 [Example 1, 5-But-2-ynyloxy-pyrazine-2-carboxylic acid [3-((4S,4aR,7aR)-2-amino-5,5-difluoro-4-methyl-4,4a,5,6,7,7a-hexahydro-cyclopenta[e][1,3]oxazin-4-yl)-4-fluoro-phenyl]-amide]	A (A = less than 50% inhibition @ 1 μM)
> 10	> 10	> 200	> 10	C[C@]1(c2cc(NC(=O)c3ccc(C#N)cn3)ccc2F)N=C(N)O[C@@H]2CCC(F)(F)[C@@H]21 [Example 2, 5-Cyano-pyridine-2-carboxylic acid [3-((4S,4aR,7aR)-2-amino-5,5-difluoro-4-methyl-4,4a,5,6,7,7a-hexahydro-cyclopenta[e][1,3]oxazin-4-yl)-4-fluoro-phenyl]-amide]	A (A = less than 50% inhibition @ 1 μM)
